We go through one compound from PMC11487561 (ACS Chemical Neuroscience, 2024).

Each structure is given as a SMILES string.

Data set [1] concerns the target Serotonin (5-Hydroxytryptamine) 5-HT2B (Homo sapiens, UniProt P41595). The data set is described as follows: Lead Profiling Screen – Eurofins Panlabs. It is filed as binding. The settings on record: read-out: % inh at 10 μM.
Data set [2] concerns Calcium Channel L-Type, Benzothiazepine. Description: Lead Profiling Screen – Eurofins Panlabs. Format: binding, rat.
The test system of the next data set is cardiac ion channels. Description: Charles River ChanTest Cardiac Channel Panel (patch clamp), whole panel. It is filed as cell-based, human. The conditions noted are these: 10 μM. The method, then:
page 17: Table S3. Cardiac Ion Channel Panel - Charles River Laboratories for VU6016235 Ion Channel Concentration Mean % Standard Standard n (μM) Inhibition Deviation Error hCav1.2 10 13.9 8.9 5.1 3 hCav3.2 10 6.7 2.7 1.4 4 hHCN2 10 2.6 1.9 1.1 3 hERG 10 10.9 0.9 0.4 4 hKv1.5 10 1.3 1.8 0.9 4 […] 10 4.1 5.6 2.8 4 hKv1.3 10 9 2.9 1.7 3 hNav1.5 (Tonic) 10 5.8 0.6 0.4 3 […] (Phasic) The in vitro effects of VU6016235 were evaluated at room temperature using the QPatch HT® (Sophion Bioscience A/S, Denmark), an automatic parallel patch clamp system. VU6016235 was evaluated at a concentration of 10 μM and tested in at least 3 cells (n ≥ 3). […] Next, rats were injected subcutaneously with vehicle or a dose of 0.75 mg/kg amphetamine and then monitored for an additional 60 min. Changes in locomotor activity were recorded for a total of 120 min. Locomotor data were expressed as the number of photobeam breaks/5 min intervals across the 120-min test session or as the total ambulation, calculated as sum of photobeam beam breaks from the time of amphetamine administration (60 min) until the end of the study (120 min). Time course data were analyzed by two-way ANOVA with main effects of treatment and time; changes in total ambulation were analyzed by one-way ANOVA followed by Dunnett's post hoc test (GraphPad Prism 7 [GraphPad Software, San Diego, CA]). […]
For orientation: Patch clamp records ionic current or voltage across a cell membrane.

In a further data set the target is Muscarinic M2 (Homo sapiens, UniProt P08172). The data set is described as follows: Lead Profiling Screen – Eurofins Panlabs. It is filed as binding. The settings on record: read-out: % inh at 10 μM.
Data set [3] can be described thus: Binding in brain homogenate from rat (equilibrium dialysis). It is filed as in vitro ADME. A general note: In equilibrium dialysis only unbound substance equilibrates across the membrane.
Data set [4] in a line: MDCK-MDR1 permeability assay. Format: in vitro ADME. The settings on record: dog.
The target in a further data set is Muscarinic M3 (Homo sapiens, UniProt P20309). Description: Lead Profiling Screen – Eurofins Panlabs. The settings on record: read-out: % inh at 10 μM. Format: binding.
Data set [5] can be described thus: Binding in plasma from rat (equilibrium dialysis). It is filed as in vitro ADME. The conditions noted are these: fraction unbound, equilibrium dialysis, read-out: rat fu,plasma. The method, then:
Binding in plasma from rat and human.
Determination of compounds’ fraction unbound (f u) in plasma from rat and human was conducted in vitro via equilibrium dialysis using HTDialysis membrane plates. Dialysis membranes (four paired strips per HTD assay) were hydrated as described by the manufacturer and inserted into the HTD plate, which was assembled and prepared for sample addition by the dispensing of blank buffer (DPBS, 100 µL/well) into the ‘top half’ of each membrane-split well. Each compound was diluted into plasma from each species (5 µM final concentration), which was aliquoted in triplicate to the ‘bottom half’ of the prepared HTD plate wells. The HTD plate was sealed and incubated for 6 hours at 37 °C. Following incubation, each well (both top and bottom halves) were transferred (20 µL) to the corresponding wells of a 96-shallow-well (V-bottom) plate. The daughter plates were then matrix-matched (buffer side wells received equal volume of plasma, and plasma side wells received equal volume of buffer), and extraction solution (120 µL; acetonitrile containing 50 nM carbamazepine as IS) was added to all wells of both daughter plates to precipitate protein and extract test article. The plates were then sealed and centrifuged (3500 rcf) for 10 minutes at ambient temperature. Supernatant (60 µL) from each well of the daughter plates was then transferred to the corresponding wells of new daughter plates (96-shallow-well, V bottom) containing water (Milli-Q, 60 µL/well), and the plates were sealed in preparation for LC-MS/MS analysis (see below). fu was calculated as (analyte to IS MS peak area ratio from Trans-buffer side) / (analyte to IS MS peak area ratio from Cis-plasma side). Mean values for each species were calculated from 3 replicates.

Chain of Serotonin (5-Hydroxytryptamine) 5-HT2B (P41595 whole entry): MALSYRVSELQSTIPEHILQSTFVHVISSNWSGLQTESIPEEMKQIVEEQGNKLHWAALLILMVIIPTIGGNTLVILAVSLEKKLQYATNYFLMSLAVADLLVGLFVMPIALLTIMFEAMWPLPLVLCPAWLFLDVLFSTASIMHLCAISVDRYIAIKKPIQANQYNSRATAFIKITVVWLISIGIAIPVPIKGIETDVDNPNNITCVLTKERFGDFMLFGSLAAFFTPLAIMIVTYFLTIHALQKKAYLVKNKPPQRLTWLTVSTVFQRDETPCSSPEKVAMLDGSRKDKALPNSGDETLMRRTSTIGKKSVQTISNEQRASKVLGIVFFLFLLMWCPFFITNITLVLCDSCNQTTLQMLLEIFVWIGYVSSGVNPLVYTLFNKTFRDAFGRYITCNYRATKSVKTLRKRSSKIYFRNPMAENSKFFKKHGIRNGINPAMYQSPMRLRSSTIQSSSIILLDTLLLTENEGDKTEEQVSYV
Chain of Muscarinic M2 (P08172 whole entry): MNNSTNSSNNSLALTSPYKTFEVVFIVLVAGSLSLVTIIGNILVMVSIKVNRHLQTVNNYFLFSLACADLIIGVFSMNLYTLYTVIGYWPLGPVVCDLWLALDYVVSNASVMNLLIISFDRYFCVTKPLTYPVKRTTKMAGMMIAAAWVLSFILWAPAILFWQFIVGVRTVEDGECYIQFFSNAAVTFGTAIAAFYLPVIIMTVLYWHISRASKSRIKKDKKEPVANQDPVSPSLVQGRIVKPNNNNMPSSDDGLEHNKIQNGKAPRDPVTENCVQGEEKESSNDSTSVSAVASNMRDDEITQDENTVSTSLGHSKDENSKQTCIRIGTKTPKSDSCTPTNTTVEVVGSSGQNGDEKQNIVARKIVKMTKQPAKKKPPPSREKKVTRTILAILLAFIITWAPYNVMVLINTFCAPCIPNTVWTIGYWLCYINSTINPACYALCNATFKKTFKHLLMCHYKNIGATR
Chain of Muscarinic M3 (P20309 whole entry): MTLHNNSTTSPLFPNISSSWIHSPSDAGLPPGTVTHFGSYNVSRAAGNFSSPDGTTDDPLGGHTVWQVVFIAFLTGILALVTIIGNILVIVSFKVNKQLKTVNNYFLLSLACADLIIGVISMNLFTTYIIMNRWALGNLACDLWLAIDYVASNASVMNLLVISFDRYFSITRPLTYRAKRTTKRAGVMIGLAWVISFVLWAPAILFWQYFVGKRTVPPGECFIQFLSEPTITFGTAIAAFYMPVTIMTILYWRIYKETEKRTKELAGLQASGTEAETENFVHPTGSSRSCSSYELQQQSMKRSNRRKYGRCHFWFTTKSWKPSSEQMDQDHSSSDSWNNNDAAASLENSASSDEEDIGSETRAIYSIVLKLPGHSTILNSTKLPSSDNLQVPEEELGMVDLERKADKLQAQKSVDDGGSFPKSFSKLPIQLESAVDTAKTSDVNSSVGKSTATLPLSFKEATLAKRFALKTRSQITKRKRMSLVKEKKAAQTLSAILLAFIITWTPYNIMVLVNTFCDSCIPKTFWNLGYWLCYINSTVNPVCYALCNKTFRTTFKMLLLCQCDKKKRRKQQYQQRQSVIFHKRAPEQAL

Regarding `Cc1nc(C)c2c(n1)sc1c(NCc3ccc(C(C)(C)O)cc3)nccc12` [22g], the inhibition at 10 µM turned out to be 16% in data set [1], 10% on Muscarinic M2 and 4% on Muscarinic M3. In data set [2], the “% inh at 10 μM” value amounted to 6%. In addition, the “inhibition, all ion channels” value in the data set with cardiac ion channels is reported as not above 14%. The rat fbrain in data set [3] (fraction unbound, equilibrium dialysis, rat brain homogenates) is on record as 0.016. In addition, in data set [3] (rat, brain homogenate, in %, read-out: fu,brain (rat brain homogenate)), the fraction unbound at 6 h, 1 µM lay in the range of 0.01 to 0.05. This compound displayed a Papp A→B in data set [4] of 47 ×10⁻⁶ cm/s. The compound also registered an apparent permeability from basolateral to apical (Papp B→A) in data set [4] of 68 ×10⁻⁶ cm/s. Besides, in data set [5], the fraction unbound at 6 h, 5 µM is 0.024.

Broadly, the Papp A→B is how fast a substance crosses the layer from the apical side. Low readings indicate slow passage, high ones fast passage. As usually defined, the Papp B→A is the apparent permeability from the basolateral to the apical side of a cell layer.
